Here are results for one compound from ChEMBL document CHEMBL3804811 (J Med Chem, 2016).

What is called Papp A→B is how fast a substance crosses the layer from the apical side. The term half-life denotes the time needed for the level to fall by half in the phase considered. Read a low half-life as fast loss. The Cmax is the highest concentration seen after dosing. As usually defined, the clearance is a measure of how efficiently the substance is removed, as volume per time. Usually Tmax stands for the time at which the peak concentration occurs. As usually defined, the IC50 is the concentration at which inhibition is half-maximal.

Calls of active or inactive are those of the source. Bounds are passed on as bounds.

A short description of series [1]: Apparent permeability from apical to basolateral side in human Caco2 cells at 2.5 mg/ml after 2 hrs by reversed-phase HPLC method. Type of series: ADME, cell-based. Particulars: Caco-2. A general note: Caco-2 monolayers are a common model of the intestinal barrier.
Series [2] is described as follows: Intrinsic clearance in rat hepatocytes at […] after 10 to 90 mins by LC-MS/MS analysis. The series is classed as ADME, cell-based, Hepatocyte. Particulars: read-out: CLH.
A short description of series [3]: Half life in Harlan nu/nu mouse at 10 mg/kg, iv administered as single dose by LC-MS/MS analysis. The series is classed as ADME, organism-based. Particulars: in vivo.
Series [4] is described as follows: Cmax in Harlan nu/nu mouse at 10 mg/kg, po administered as single dose by LC-MS/MS analysis. The series is classed as ADME, organism-based. Details: dose 10 mg/kg, route oral. The note with it: in vivo.
The nature of series [5]: Half life in Harlan nu/nu mouse at 10 mg/kg, po administered as single dose by LC-MS/MS analysis. The series is classed as ADME, organism-based. Particulars: in vivo.
Series [6] is described as follows: Cmax in Sprague-Dawley rat at 10 mg/kg, iv administered as single dose by LC-MS/MS analysis. Particulars: in vivo. Details: dose 10 mg/kg, route intravenous. The series is classed as ADME, organism-based.
A short description of series [7]: Clearance in Sprague-Dawley rat at 10 mg/kg, iv administered as single dose by LC-MS/MS analysis. The series is classed as ADME, organism-based. The note with it: in vivo.
The nature of series [8]: Tmax in Sprague-Dawley rat at 10 mg/kg, po administered as single dose by LC-MS/MS analysis. The series is classed as ADME, organism-based. Particulars: in vivo.
Series [9] relates to KM12. The series can be described thus: Antiproliferative activity against human KM12 cells expressing TRKA protein incubated for 72 hrs by cell titer-glo assay. Particulars: KM12, 72 h.
Series [10] concerns NCI-H2228. The series can be described thus: Antiproliferative activity against human NCI-H2228 cells expressing ALK protein incubated for 72 hrs by cell titer-glo assay. The note with it: NCI-H2228, 72 h. For orientation: Cellular ATP, detected with luciferase, serves as a proxy for viable cell number.
Series [11] is described as follows: Cytotoxicity against mouse IL-3 dependent BA/F3 cells incubated for 72 hrs by cell titer-glo assay. The series is classed as cell-based. The note with it: BaF3, 72 h.
Series [12] has as its target Tyrosine-protein kinase JAK2 (Homo sapiens, UniProt O60674). The series can be described thus: Inhibition of JAK2 (unknown origin) in presence of gamma33-ATP.
Series [13] has as its target T1, Eukaryotic elongation factor 2 kinase (Homo sapiens, UniProt O00418).
T1 sequence (O00418 whole entry): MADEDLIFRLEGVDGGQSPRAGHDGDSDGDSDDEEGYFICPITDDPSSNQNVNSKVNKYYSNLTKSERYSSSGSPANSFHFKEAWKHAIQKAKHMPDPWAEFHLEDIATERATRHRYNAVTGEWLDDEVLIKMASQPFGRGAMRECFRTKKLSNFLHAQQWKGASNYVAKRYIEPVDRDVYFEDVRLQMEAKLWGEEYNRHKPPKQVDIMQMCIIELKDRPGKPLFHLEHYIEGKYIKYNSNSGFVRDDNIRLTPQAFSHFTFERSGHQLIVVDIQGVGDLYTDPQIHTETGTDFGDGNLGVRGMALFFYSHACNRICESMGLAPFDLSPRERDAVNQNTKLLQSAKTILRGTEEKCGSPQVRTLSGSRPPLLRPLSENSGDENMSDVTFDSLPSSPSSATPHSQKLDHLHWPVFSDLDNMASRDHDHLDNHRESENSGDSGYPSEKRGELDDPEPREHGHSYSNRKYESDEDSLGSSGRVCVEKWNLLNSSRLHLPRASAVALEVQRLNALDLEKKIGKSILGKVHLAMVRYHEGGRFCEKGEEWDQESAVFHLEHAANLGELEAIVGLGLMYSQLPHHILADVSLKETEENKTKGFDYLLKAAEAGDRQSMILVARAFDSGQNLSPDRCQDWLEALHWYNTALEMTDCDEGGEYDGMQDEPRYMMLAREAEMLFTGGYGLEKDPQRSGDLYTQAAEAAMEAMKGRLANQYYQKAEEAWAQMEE
Put plainly: Inhibition of EEF2K (unknown origin) in presence of gamma33-ATP.

Series [14] addresses Serine/threonine-protein kinase NIM1 (Homo sapiens, UniProt Q8IY84). Put plainly: Inhibition of NIM1 (unknown origin) in presence of gamma33-ATP.
The target of series [15] is T2, 3-phosphoinositide-dependent protein kinase 1 (Homo sapiens, UniProt O15530).
T2 sequence (O15530 whole entry): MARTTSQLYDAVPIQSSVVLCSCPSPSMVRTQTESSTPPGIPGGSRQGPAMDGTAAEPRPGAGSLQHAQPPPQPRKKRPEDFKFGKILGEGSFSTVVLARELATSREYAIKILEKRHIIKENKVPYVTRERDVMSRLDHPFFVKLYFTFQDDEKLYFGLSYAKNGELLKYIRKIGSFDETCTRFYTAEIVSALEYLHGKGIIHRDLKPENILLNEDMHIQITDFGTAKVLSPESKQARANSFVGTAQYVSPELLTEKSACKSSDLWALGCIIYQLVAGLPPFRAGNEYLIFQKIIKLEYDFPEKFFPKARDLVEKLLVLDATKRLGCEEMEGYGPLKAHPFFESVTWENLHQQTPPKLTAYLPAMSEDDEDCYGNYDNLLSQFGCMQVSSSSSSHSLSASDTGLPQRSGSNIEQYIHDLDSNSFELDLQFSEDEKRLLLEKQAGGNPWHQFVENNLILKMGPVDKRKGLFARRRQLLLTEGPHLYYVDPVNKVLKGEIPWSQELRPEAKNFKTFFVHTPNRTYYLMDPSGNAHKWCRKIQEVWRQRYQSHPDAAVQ
The series can be described thus: Inhibition of PDK1 (unknown origin) in presence of gamma33-ATP.

Series [16] is described as follows: Inhibition of SULU1 (unknown origin) in presence of gamma33-ATP. Details: species or system Homo sapiens.
The target of series [17] is T3, Tyrosine-protein kinase ZAP-70 (Homo sapiens, UniProt P43403).
T3 sequence (P43403 whole entry): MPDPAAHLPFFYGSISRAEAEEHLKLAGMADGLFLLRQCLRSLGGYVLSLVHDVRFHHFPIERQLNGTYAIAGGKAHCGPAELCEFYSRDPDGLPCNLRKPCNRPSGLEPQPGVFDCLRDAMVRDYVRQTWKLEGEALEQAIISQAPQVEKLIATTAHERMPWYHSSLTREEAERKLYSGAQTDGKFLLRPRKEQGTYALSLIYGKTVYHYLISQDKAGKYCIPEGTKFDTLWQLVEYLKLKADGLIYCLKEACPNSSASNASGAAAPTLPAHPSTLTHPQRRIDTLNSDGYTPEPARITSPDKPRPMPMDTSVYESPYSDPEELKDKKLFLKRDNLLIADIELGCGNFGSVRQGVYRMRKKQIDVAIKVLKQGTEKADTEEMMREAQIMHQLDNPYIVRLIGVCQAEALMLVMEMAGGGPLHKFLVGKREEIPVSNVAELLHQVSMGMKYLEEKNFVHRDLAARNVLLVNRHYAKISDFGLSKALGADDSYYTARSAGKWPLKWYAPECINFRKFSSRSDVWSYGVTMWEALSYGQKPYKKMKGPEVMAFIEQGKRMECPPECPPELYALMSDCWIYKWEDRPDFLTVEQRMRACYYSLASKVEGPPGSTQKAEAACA
The series can be described thus: Inhibition of ZAP70 (unknown origin) in presence of gamma33-ATP.

Series [18] can be described thus: Plasma concentration in Harlan nu/nu mouse at 240 mg/kg, po administered per day for 2 weeks measured 6 hrs post last dose by LC-MS/MS analysis. The series is classed as ADME, organism-based.
The subject of series [19] is KARPAS-299. Particulars: Homo sapiens.
Description: Antitumor activity against human KARPAS299 cells xenografted in SCID mouse assessed as tumor growth inhibition at 30 to 60 mg/kg, po bid administered for 10 days
Series [20] concerns NCI-H2228. The note with it: Homo sapiens.
Description: Antitumor activity against human NCI-H2228 cells xenografted in athymic nu/nu mouse assessed as tumor growth inhibition at 30 to 60 mg/kg, po bid administered for 10 days

Chain of Tyrosine-protein kinase JAK2 (O60674 whole entry): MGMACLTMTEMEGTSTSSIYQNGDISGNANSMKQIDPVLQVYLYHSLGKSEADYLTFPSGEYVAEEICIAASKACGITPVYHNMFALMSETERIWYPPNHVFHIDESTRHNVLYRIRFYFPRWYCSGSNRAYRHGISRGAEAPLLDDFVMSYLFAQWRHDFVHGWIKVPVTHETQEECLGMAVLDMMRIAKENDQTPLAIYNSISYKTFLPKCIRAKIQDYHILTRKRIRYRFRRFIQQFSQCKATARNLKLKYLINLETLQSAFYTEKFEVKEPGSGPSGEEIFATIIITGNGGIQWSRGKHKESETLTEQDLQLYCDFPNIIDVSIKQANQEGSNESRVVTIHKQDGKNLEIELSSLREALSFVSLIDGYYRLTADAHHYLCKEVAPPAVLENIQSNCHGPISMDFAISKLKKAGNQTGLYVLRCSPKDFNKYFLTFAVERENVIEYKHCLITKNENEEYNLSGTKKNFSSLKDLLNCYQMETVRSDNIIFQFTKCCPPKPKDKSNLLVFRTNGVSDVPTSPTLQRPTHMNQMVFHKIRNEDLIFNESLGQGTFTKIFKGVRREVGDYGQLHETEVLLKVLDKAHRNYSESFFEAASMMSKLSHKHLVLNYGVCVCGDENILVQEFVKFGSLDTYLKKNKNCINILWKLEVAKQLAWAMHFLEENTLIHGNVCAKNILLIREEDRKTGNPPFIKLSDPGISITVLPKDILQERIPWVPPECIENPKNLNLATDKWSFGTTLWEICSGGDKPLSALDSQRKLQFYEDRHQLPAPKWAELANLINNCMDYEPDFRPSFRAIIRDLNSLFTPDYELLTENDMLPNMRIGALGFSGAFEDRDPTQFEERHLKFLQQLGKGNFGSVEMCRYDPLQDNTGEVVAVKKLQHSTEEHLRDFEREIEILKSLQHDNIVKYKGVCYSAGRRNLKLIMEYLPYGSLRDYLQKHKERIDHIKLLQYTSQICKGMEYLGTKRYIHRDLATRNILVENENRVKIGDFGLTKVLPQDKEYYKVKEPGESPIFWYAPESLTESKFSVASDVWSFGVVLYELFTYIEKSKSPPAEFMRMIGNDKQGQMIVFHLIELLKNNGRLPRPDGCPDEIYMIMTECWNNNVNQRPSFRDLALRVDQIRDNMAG
Chain of Serine/threonine-protein kinase NIM1 (Q8IY84 whole entry): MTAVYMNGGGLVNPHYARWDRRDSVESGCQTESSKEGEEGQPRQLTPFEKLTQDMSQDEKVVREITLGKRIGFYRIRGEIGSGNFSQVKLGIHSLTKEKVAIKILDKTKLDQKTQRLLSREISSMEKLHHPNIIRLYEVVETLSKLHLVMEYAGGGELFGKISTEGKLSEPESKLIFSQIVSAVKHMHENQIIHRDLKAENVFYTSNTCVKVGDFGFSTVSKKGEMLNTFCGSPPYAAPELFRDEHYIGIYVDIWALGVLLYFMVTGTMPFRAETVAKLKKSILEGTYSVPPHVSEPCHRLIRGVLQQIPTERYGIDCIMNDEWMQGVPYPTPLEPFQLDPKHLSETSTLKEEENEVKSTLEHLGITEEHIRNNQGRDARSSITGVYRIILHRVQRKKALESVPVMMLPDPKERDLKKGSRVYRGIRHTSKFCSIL

Turning to `CN1CCN(c2ccc(C(=O)Nc3n[nH]c4ccc(Cc5cc(F)cc(F)c5)cc34)c(NC3CCOCC3)c2)CC1` [ENTRECTINIB], in series [1], the Papp A→B at 2 h, 2.5 mg/ml worked out at 2.4 ×10⁻⁶ cm/s. For the same compound, the CLint scaled in [2] turned out to be 87 mL/min/kg. Besides, the half-life in series [3] is 3.59 h; in [5], 2.94 h. The highest concentration (Cmax) in series [4] came to 1.33 µM; in series [6], 11 µM. Further, the clearance in series [7] amounted to 20.8 mL/min/kg. Moreover, the Tmax in series [8] stood at 3.08 h. The IC50 in series [9] was 17 nM; in series [10] it was 68 nM; in series [11] it was 2100 nM; in series [12] it was 40 nM; in series [13], above 10000 nM; in series [14], above 10000 nM. In addition, the half-inhibitory concentration (IC50) in series [15], in series [16] and in series [17] was above 10000 nM throughout. The compound further returned a concentration at 6 h in series [18] of 4.57 µM. The TGI entry in [19] and in series [20] was “Active” each time.
